The record followed here is patent publication US20250206730A1 (AUTOTELIC BIO INC., priority 2022, published 2025).

For orientation: IC50 means the concentration needed to halve the response being measured.

Assay [1] concerns TGF-β signaling. Kind of assay: Assay for evaluating cellular inhibition of TGF-β signaling, 4T1 (SBE-luc2P) luciferase reporter. The format is cell-based. Particulars: Mus musculus, 4T1, 4T1 (SBE-luc2P) transient pool, 0.2% FBS, 2 h pre-treatment, TGF-β1 2 ng/mL 24 h; read-out: IC50 4T1 Cell. In outline: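 Luminescence from SMAD-binding-element luciferase was measured after 24 h of 2 ng/mL TGF-β1 at 37 °C, following 2 h compound pre-treatment. HEK293 stable reporter cells were used at 2.5×10^4/well in 0.5% FBS (~80% confluent); the 4T1 SBE-luc2P transient pool at 6×10^3/well in 0.2% FBS (~60% confluent).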
For orientation: Reporter assays use an easily measured gene product as a stand-in for the process of interest.

For assay [2], the target named is T1, ALK5 kinase (Homo sapiens, UniProt P36897).
T1 sequence (P36897 34-503): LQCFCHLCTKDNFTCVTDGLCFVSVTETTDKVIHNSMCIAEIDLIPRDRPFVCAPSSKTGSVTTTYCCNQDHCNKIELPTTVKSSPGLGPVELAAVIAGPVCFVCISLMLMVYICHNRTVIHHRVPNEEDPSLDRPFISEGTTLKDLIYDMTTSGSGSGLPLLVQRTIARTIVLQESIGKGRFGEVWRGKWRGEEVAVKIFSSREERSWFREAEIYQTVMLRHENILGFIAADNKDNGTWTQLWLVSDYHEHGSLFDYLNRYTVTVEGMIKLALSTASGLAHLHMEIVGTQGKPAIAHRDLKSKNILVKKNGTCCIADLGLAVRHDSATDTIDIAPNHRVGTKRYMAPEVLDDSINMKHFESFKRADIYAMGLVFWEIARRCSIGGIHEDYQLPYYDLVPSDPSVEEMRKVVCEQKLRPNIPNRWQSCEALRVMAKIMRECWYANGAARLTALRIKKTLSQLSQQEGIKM
Kind of assay: LanthaScreen Eu Kinase Binding Assay. Particulars: Kinase Tracer 178, Eu-anti-GST Antibody, read-out: IC50 Enzyme. The method, then:
[Example 1] LanthaScreen Eu Kinase Binding Assay
4 μL of 4× Test Compound in 4% DMSO and 4 μL of 4× Kinase in Kinase buffer were added to wells (low volume, white 384-well plate (Greiner Cat. #784207)). The plate was shaken for 30 seconds, centrifuged for 10 seconds at 1000 rpm, and incubated at RT for 30 minutes. Then, 4 μL of 4× Eu-anti-GST Antibody and 4 μL of 4× Kinase Tracer 178 were added to the wells. The plate was shaken for 30 seconds, centrifuged for 10 seconds at 1000 rpm, and incubated at RT for 60 minutes. Fluorescence was measured by a plate reader, Biotek Synergy H1 (Vermont, USA) under the following conditions. • Excitation: 340 nm (3 nm bandpass) • Kinase tracer emission: 665 nm (10 nm bandpass) • Eu Ab emission: 615 nm (10 nm bandpass) • Emission ratio=665 nm (tracer)/615 nm (Eu Ab) • The higher the binding affinity of compound to ALK5 kinase is, the less the emission ratio is.
In general terms: Time-resolved FRET reads energy transfer from a long-lived donor to a nearby acceptor.

As to `CC(C)(O)c1cc(Nc2cc(Oc3sc(N)nc3-c3ccccc3)ccn2)ccn1` [A-42, 2-(4-((4-((2-Amino-4-phenylthiazol-5-yl)oxy)pyridin-2-yl)amino)pyridin-2-yl)propan-2-ol], the results for the 50% inhibitory concentration (IC50) in assay [1] and in assay [2] were more than 100 nM and less than 100 nM, respectively.
Take `Cc1nc(-c2ccccc2)c(Oc2ccnc(Nc3cccc(S(N)(=O)=O)c3)n2)s1` [A-238, 3-((4-((2-Methyl-4-phenylthiazol-5-yl)oxy)pyrimidin-2-yl)amino)benzenesulfonamide]: the IC50 in assay [1] and in assay [2] was less than 100 nM each time.
Take `NC(=O)c1ccc(Nc2cc(Oc3sc(N)nc3-c3ccccc3)ccn2)nc1` [A-9, 6-((4-((2-Amino-4-phenylthiazol-5-yl)oxy)pyridin-2-yl)amino)nicotinamide]: the IC50 in assay [1] and in assay [2] was less than 100 nM throughout.
As to `CNC(=O)c1ccc(Nc2cc(Oc3sc(C(C)C)nc3-c3ccccc3)ccn2)nc1` [A-228, 6-((4-((2-Isopropyl-4-phenylthiazol-5-yl)oxy)pyridin-2-yl)amino)-N-methylnicotinamide], the IC50 in assay [1] and in assay [2] was less than 100 nM throughout.
As to `Cc1nc(-c2ccccc2)c(Oc2ccnc(Nc3ccc(C(N)=O)nc3)c2)s1` [A-91, 5-((4-((2-Methyl-4-phenylthiazol-5-yl)oxy)pyridin-2-yl)amino)picolinamide], the 50% inhibitory concentration (IC50) in assay [1] is more than 100 nM; in assay [2] it was less than 100 nM.
Take `CNC(=O)c1ccc(Nc2cc(Oc3sc(N(C)C)nc3-c3ccccc3)ccn2)nc1` [A-166, 6-((4-((2-(Dimethylamino)-4-phenylthiazol-5-yl)oxy)pyridin-2-yl)amino)-N-methylnicotinamide]: the IC50 in assay [1] and in assay [2] was less than 100 nM in each case.
For the molecule `O=C(O)c1cccc(Nc2cc(Oc3sc(C4CC4)nc3-c3ccccc3)ccn2)n1` [A-134, 6-((4-((2-Cyclopropyl-4-phenylthiazol-5-yl)oxy)pyridin-2-yl)amino)picolinic acid], the half-maximal inhibitory concentration (IC50) in assay [1] and in assay [2] was less than 100 nM each time.
For the molecule `CN(C)c1nc(-c2ccccc2)c(Oc2ccnc(Nc3cccc(C(=O)O)c3)c2)s1` [A-167, 3-((4-((2-(Dimethylamino)-4-phenylthiazol-5-yl)oxy)pyridin-2-yl)amino)benzoic acid], the IC50 in assay [1] was more than 100 nM; in assay [2] it was less than 100 nM.
The corresponding values for `Cc1cccc(-c2nc(C3CC3)sc2Oc2ccnc(Nc3ccc(C(N)=O)cn3)c2)n1` [A-275] are less than 100 nM and less than 100 nM.
Taken in the same sequence, the figures for `CC(C)(O)c1ccc(Nc2cc(Oc3sc(N)nc3-c3ccccc3)ccn2)cn1` [A-43, 2-(5-((4-((2-Amino-4-phenylthiazol-5-yl)oxy)pyridin-2-yl)amino)pyridin-2-yl)propan-2-ol] were more than 100 nM and less than 100 nM.
Consider `Cc1nc(-c2ccccc2)c(Oc2ccnc(Nc3ccnc(C(C)(C)O)c3)c2)s1` [A-59, 2-(4-((4-((2-Methyl-4-phenylthiazol-5-yl)oxy)pyridin-2-yl)amino)pyridin-2-yl)propan-2-ol], for which the IC50 in assay [1] was more than 100 nM; in assay [2] it was less than 100 nM.
Taken in the same sequence, the figures for `Cc1cccc(-c2nc(C)sc2Oc2ccnc(Nc3cccc(CC#N)c3)c2)n1` [A-304] were less than 100 nM and less than 100 nM.
Taken in the same sequence, the figures for `CN(C)c1nc(-c2ccccc2)c(Oc2ccnc(Nc3ccc(C(=O)O)cn3)c2)s1` [A-165, 6-((4-((2-(Dimethylamino)-4-phenylthiazol-5-yl)oxy)pyridin-2-yl)amino)nicotinic acid] were less than 100 nM and less than 100 nM.
For `CCc1nc(-c2cccc(C)n2)c(Oc2ccnc(Nc3cccc(C(=O)O)n3)c2)s1` [A-254, 6-((4-((2-Ethyl-4-(6-methylpyridin-2-yl)thiazol-5-yl)oxy)pyridin-2-yl)amino)picolinic acid], the IC50 in assay [1] was less than 100 nM; in assay [2], more than 100 nM.
The corresponding values for `NS(=O)(=O)c1cccc(Nc2cc(Oc3sc(C(F)(F)F)nc3-c3ccccc3)ccn2)c1` [A-145, 3-((4-((4-Phenyl-2-(trifluoromethyl)thiazol-5-yl)oxy)pyridin-2-yl)amino)benzenesulfonamide] are more than 100 nM and less than 100 nM.
The corresponding values for `CC(C)c1nc(-c2ccccc2)c(Oc2ccnc(Nc3ccc(S(N)(=O)=O)cc3)c2)s1` [A-221, 4-((4-((2-Isopropyl-4-phenylthiazol-5-yl)oxy)pyridin-2-yl)amino)benzenesulfonamide] are more than 100 nM and less than 100 nM.
Taken in the same sequence, the figures for `CCc1nc(-c2ccccc2)c(Oc2ccnc(Nc3ccc(C(=O)O)cc3)c2)s1` [A-195, 4-((4-((2-Ethyl-4-phenylthiazol-5-yl)oxy)pyridin-2-yl)amino)benzoic acid] were less than 100 nM and less than 100 nM.
As for `NC(=O)c1ccc(Nc2cc(Oc3sc(N)nc3-c3ccccc3)ccn2)cc1` [A-5, 4-((4-((2-Amino-4-phenylthiazol-5-yl)oxy)pyridin-2-yl)amino)benzamide], the IC50 in assay [1] is more than 100 nM; in assay [2], less than 100 nM.
Regarding `CCc1nc(-c2ccccc2)c(Oc2ccnc(Nc3ccc(C(=O)NC)cc3)c2)s1` [A-189, 4-((4-((2-Ethyl-4-phenylthiazol-5-yl)oxy)pyridin-2-yl)amino)-N-methylbenzamide], the IC50 in assay [1] and in assay [2] was less than 100 nM each time.
Take `COc1nc(-c2ccccc2)c(Oc2ccnc(Nc3cccc(C(=O)O)c3)c2)s1` [A-144, 3-((4-((2-Methoxy-4-phenylthiazol-5-yl)oxy)pyridin-2-yl)amino)benzoic acid]: the concentration for half-maximal inhibition (IC50) in assay [1] is more than 100 nM; in assay [2], less than 100 nM.
The corresponding values for `CC(C)c1nc(-c2ccccc2)c(Oc2ccnc(Nc3cccc(C(=O)O)c3)c2)s1` [A-230, 3-((4-((2-Isopropyl-4-phenylthiazol-5-yl)oxy)pyridin-2-yl)amino)benzoic acid] are more than 100 nM and less than 100 nM.
As to `CS(=O)(=O)Nc1cccc(Nc2cc(Oc3sc(N)nc3-c3ccccc3)ccn2)c1` [A-14, N-(3-((4-((2-Amino-4-phenylthiazol-5-yl)oxy)pyridin-2-yl)amino)phenyl)methanesulfonamide], the IC50 in assay [1] and in assay [2] was less than 100 nM each time.
Take `CC(C)(O)c1cccc(Nc2cc(Oc3sc(N)nc3-c3ccccc3)ccn2)c1` [A-41, 2-(3-((4-((2-Amino-4-phenylthiazol-5-yl)oxy)pyridin-2-yl)amino)phenyl)propan-2-ol]: the values for the IC50 in assay [1] and in assay [2] were more than 100 nM and less than 100 nM, respectively.
For `Cc1nc(-c2ccccc2)c(Oc2ccnc(Nc3cccc(CC#N)c3)c2)s1` [A-111, 2-(3-((4-((2-Methyl-4-phenylthiazol-5-yl)oxy)pyridin-2-yl)amino)phenyl)acetonitrile], the IC50 in assay [1] and in assay [2] was less than 100 nM each time.
`CS(=O)(=O)Nc1ccc(Nc2cc(Oc3sc(C4CC4)nc3-c3ccccc3)ccn2)cc1` [A-128, N-(4-((4-((2-Cyclopropyl-4-phenylthiazol-5-yl)oxy)pyridin-2-yl)amino)phenyl)methanesulfonamide]: the half-inhibitory concentration (IC50) in assay [1] and in assay [2] was less than 100 nM throughout.
For `CN(C)c1nc(-c2ccccc2)c(Oc2ccnc(Nc3ccc(C(=O)O)cc3)c2)s1` [A-168, 4-((4-((2-(Dimethylamino)-4-phenylthiazol-5-yl)oxy)pyridin-2-yl)amino)benzoic acid], the IC50 in assay [1] and in assay [2] was less than 100 nM each time.
In the case of `Cc1nc(-c2ccccc2)c(Oc2ccnc(Nc3cccc(Cc4nnn[nH]4)c3)c2)s1` [A-112, N-(3-((1H-Tetrazol-5-yl)methyl)phenyl)-4-((2-methyl-4-phenylthiazol-5-yl)oxy)pyridin-2-amine], the IC50 in assay [1] and in assay [2] was less than 100 nM in each case.
On to `Nc1nc(-c2ccccc2)c(Oc2ccnc(Nc3cccc(C(=O)O)c3)c2)s1` [A-40, 3-((4-((2-Amino-4-phenylthiazol-5-yl)oxy)pyridin-2-yl)amino)benzoic acid], for which the IC50 is more than 100 nM in assay [1] and less than 100 nM in assay [2].
Taken in the same sequence, the figures for `Cc1cccc(-c2nc(C(F)(F)F)sc2Oc2ccnc(Nc3cccc(C(N)=O)c3)c2)n1` [A-291, 3-((4-((4-(6-Methylpyridin-2-yl)-2-(trifluoromethyl)thiazol-5-yl)oxy)pyridin-2-yl)amino)benzamide] were less than 100 nM and less than 100 nM.
